Measured values published in US20250041272A1, “COMPOSITIONS AND METHODS FOR TREATING CANCER VIA PTP1B INHIBITION” (priority 2021, published 2025).

How the values were obtained:
[1] = target: T1, ternary complex of PTP1b with Mer and Stat1 (Mus musculus, UniProt P35821); assay: Co-immunoprecipitation of PTP1b or Stat1 from macrophages co-cultured with B16F10 cells; format: cell-based
T1 construct: endogenous in cells; host or cells: Primary peritoneal macrophages from C57BL/6J mice, stimulated with IFNγ and LPS and co-cultured with B16F10 melanoma cells
T1 sequence (P35821 1-432): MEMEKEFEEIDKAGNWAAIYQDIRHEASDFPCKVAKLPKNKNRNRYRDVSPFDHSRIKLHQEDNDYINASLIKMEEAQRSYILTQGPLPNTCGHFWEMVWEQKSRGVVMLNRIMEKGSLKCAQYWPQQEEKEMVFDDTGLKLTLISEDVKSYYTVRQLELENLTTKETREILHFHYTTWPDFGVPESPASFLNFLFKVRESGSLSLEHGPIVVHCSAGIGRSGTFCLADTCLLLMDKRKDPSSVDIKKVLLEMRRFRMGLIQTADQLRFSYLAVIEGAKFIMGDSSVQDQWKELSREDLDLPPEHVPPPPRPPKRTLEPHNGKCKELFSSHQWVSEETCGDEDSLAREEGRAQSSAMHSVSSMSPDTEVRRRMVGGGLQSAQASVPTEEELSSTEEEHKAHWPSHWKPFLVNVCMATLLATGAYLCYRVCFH
Method: Coimmunoprecipitation and Western blot. Coimmunoprecipitation was performed using […] A/G agarose beads (Santa Cruz Biotechnology Inc.) and antibodies for PTP1b (Abcam) or STAT1 (Cell signaling). Samples were incubated for 3 days at 4° C. under rotation and washed three times with RIPA buffer before loading them in 10% Mini-PROTEAN TGX stain-free gels (Biorad). After running the electrophoresis in the Mini-PROTEAN Tetra System (Bio-Rad) proteins were transferred to a 0.2-μm nitrocellulose Trans-Blot Mini Turbo Transfer Pack (Bio-Rad) using a Trans-Blot Turbo Transfer System (Bio-Rad). Membranes were blocked with 5% BSA (Fisher scientific) for 1 hour and blotted with antibodies against MyD88 (Cell Signaling), total STAT1 (Cell Signaling), tyrosine 701 phosphorylated STAT1 (Cell signaling), serine 727 phosphorylated STAT1 (Cell signaling), PTP1 b (Abcam) and Mer (Thermo Fisher scientific). Detection was performed with the ECL HPR-linked anti-rabbit antibody (Cell signaling) and the Clarity-Max Western ECL substrate (Bio-Rad). Blots were imaging with ChemiDoc MP Imaging System (Bio-Rad) and quantitated using ImageJ software (NIH).

[2] = system: B16F10 tumors; assay: Subcutaneous B16F10 melanoma tumor model; format: in vivo, mouse
Method: (§1) Tumor implantation, treatment and harvest. For animal studies, 1*10^5 B16F10 luciferase-tagged melanoma cells, 1*10^6 GEMM6 melanoma cells or 2*10^6 LCC cells were implanted subcutaneously into C57BL/6J mice (randomized, both males and females, 000664 The Jackson laboratory). When indicated, mice received intraperitoneal injections 7 days after implantation with 100 μl of 5 mg/kg cisplatin (Tocris), 100 μl of 10 mg/kg BVT948 (Tocris) or 100 μl of 30 mg/kg of vemurafenib. 5 mice were used per experimental group and tumors were harvested when they reached 1.5 cm in any direction.
(§2) Immunohistochemistry analysis. Immunohistochemistry assay was carried out in formalin-fixed, paraffin-embedded 4 μm sections using primary antibodies against F4:80 (AbD Serotec), CD11b (Abcam), CD4 (eBioscience) or CD8a (eBioscience) on a Discovery Ultra Automated IHC staining system (Ventana). Sections were then imaged using a ScanScope XT microscope (Aperio) and quantified using Aperio software.

[3] = system: LLC tumors; assay: Subcutaneous LLC tumor model; format: in vivo, mouse
Method: as §1, §2

[4] = co-immunoprecipitation of Stat1, 24 hours
[5] = BVT948 10 mg/kg or Cisplatin 5 mg/kg intraperitoneal, treatment from 50 mm^3
[6] = BVT948 in combination with Cisplatin

## BVT948
[1]; co-immunoprecipitation of PTP1b, in the presence of B16F10 cells
  association of PTP1b with Mer and Stat1: reduced the association
[1]; [4]
  Stat1 S727 phosphorylation: restoration of Stat1 S727 phosphorylation
  ternary complex formation: reduced ternary complex formation
[2]; [5]
  B16F10 tumor growth, monotherapy vs vehicle: did not significantly reduce
[2]; [6]
  decrease in B16F10 tumor growth, combination: roughly 50%
[2]; BVT948 monotherapy, B16F10 tumors
  reduction in tumor viability (H&E staining): 20%
[2]; BVT948 monotherapy, end-stage B16F10
  intra-tumoral immune infiltrate: some increases in macrophage and T cells
[3]; [5]
  LLC tumor growth reduction, monotherapy: 30%
[3]; [6]
  decrease in LLC tumor growth, combination: roughly 50%
[3]; BVT948 monotherapy, LLC tumors
  tumor viability (H&E staining): not significantly changed
